Six molecules from US5393765A, “Pharmaceutical compositions with constant erosion volume for zero order controlled release” (Hoffmann-La Roche Inc., priority 1993, dated 1995) can be followed below.

SMILES strings stand for the structures. Converted amounts (≈) assume the structure as drawn. Where a name gives a salt, the structure may show the parent alone. Read-outs that look alike come from different tables or passages of the source. Where only a bound is given, the exact number is not on record here.

Series [1] is described as follows: Solubility of the exemplary drugs in water at 25° C. It counts as physicochemical. The protocol:
Solubility of the exemplary drugs in water at 25° C. is as follows: […]

The nature of series [2]: Drug release from the erodible matrix, USP dissolution test (Basket or Paddle Method). It counts as physicochemical. The following applies: in the given dissolution medium; FIGS. 2-7 and 9-15; FIG. 8 (chlorpheniramine maleate composition with the polymer, water, 37° C., Basket Method, 100 rpm).
Protocol: The evaluation of drug release from the erodible matrix was performed using the USP dissolution test procedure with either the Basket or Paddle Method at the speed as specified. […] Briefly, in both methods, one tablet is placed in the appropriate apparatus described below containing the specified amount of dissolution medium and the stirring element is started. The amount of drug in solution is determined by the UV spectrophotometric method as is known in the art. The assembly used in the Basket Method consists of the following: a covered vessel made of glass with nominal capacity 1000 mL; a motor; a metallic drive shaft; and a cylindrical basket. The vessel containing 900 mL of the specified dissolution medium (i.e., water, 1% nonionic surfactant Emulphor ON-870 in phosphate buffer, pH 7.5 or 3% sodium lauryl sulfate, pH 9.0) is partially immersed in a suitable water bath and equilibrated at 37°±0.5° C. A fitted cover may be used to retard evaporation. The shaft is positioned so that its axis is not more than 2 mm at any point from the vertical axis of the vessel and rotates smoothly and without significant wobble. A speed-regulating device is used that allows the shaft rotation speed to be selected and maintained at the specified rate. The recommended basket speed is 100 rpm. […] The drug analysis was determined by UV spectrophotometry.
[3] abbreviates: in water at 25° C., read-out: Solubility.

Consider `CCC(CC)(CC(=O)Nc1cccc(/C=C/c2nc(C3CCC3)cs2)c1)C(=O)O` [(E)-4-[[3-[2-(4-Cyclobutyl-2-thiazolyl)ethenyl]phenyl]amino]-2,2-diethyl-4-oxobutanoic acid], for which the solubility in series [1] (setting [3]) is less than 2 µg/mL.
`Cc1nnc2n1-c1sc(C#CCn3c(=O)c4ccccc4c4ccccc43)cc1C(c1ccccc1Cl)=NC2` [5-[3-[4-(2-Chlorophenyl)-9-methyl-6H-thieno[3,2-f][1,2,4]triazolo[4,3-a][1,4]diazepin-2-yl]-2-propynyl]phenanthrydin-6(5H)-one] registered a solubility in series [1] (water) of 0.01 µg/mL (≈ 0.0183 µM).
As for `CN(C)CCC(c1ccc(Cl)cc1)c1ccccn1` (stereo not drawn) [chlorpheniramine maleate], the “Release profile (zero order)” value in series [2] was “does not produce a zero-order release profile”.
As to `O=C(CCCCCCCCc1cccnc1)N1CCC(C=C(c2ccccc2)c2ccccc2)CC1` [4-(2,2-Diphenylethenyl)-1-[1-oxo-9-(3-pyridinyl)nonyl]piperidine], in series [1] (setting [3]), the solubility worked out at 0.182 µg/mL (≈ 0.379 µM).
Regarding `COc1ccc([C@@H]2Sc3c(ccc4ccccc34)N(CCN(C)C)C(=O)[C@@H]2OC(C)=O)cc1` (single isomer, unassigned) [(+)-cis-3-(Acetyloxy)-2,3-dihydro-2-(4-methoxyphenyl)-5-[2-(dimethylamino)ethyl]naphtho[1,2-b]-1,4-thiazepin-4(5H)-one], the solubility in series [1] (setting [3]) was 80000 µg/mL (≈ 172000 µM).
`CNC1=Nc2ccc(Cl)cc2C(c2ccc[nH]2)=NC1` [7-Chloro-N-methyl-5-(1H-pyrrol-2-yl)-3H-1,4-benzodiazepin-2-amine]: the solubility in series [1] (setting [3]) came to 1.5 µg/mL (≈ 5.5 µM).

What is called solubility is the concentration that dissolves in the medium under given conditions.
